Laboratory results reported in patent publication US10172911B2, “Methods of modulating erythropoiesis with arginine vasopressin receptor 1B molecules” (The United States of America, as represented by the …, priority 2013, dated 2019).
Entries after “also recorded” stand apart in the source; their conditions may differ.

Key:
β-catenin = β-catenin immunostaining of AVP-stimulated human CD34+ cells; assay type: cell-based; conditions: 10^−10 M, 24 hours
Description: (§1) FIGS. 3A-3D show studies of signaling pathways. FIG. 3A provides results from CFU assays showing E-CFU and GM-CFU numbers/1000 plated cells. […] Error bars represent means±SD * p<0.05, ** p<0.01, unpaired t-test. […] The cells were then fixed with 4% paraformaldehyde and washed before immunostaining. Following permeabilization with Triton-X 100 a primary antibody to β-catenin was applied followed by a fluorescent secondary antibody. The β-catenin translocated to the nucleus at the 10^−10 AVP concentration confirming the activation of the Wnt pathway. Scale: 10 μm. […] Using Q-PCR to detect changes in genes that reflect Wnt pathway activation, increases in CCND1, MYC and LEF1 in response to AVP stimulation were observed.
FIGS. 8A-8C show AVP stimulation results in the nuclear translocation of β-catenin affecting the Wnt pathway. […] The cells were then fixed with 4% paraformaldehyde and washed before immunostaining. Following permeabilization with Triton-X 100, a primary antibody to β-catenin was applied followed by a fluorescent secondary antibody. The β-catenin translocated to the nucleus at the 10^−10 M AVP concentration confirming the activation of the Wnt pathway. Scale: 10 μm. FIG. 8B CFU assays showing E-CFU and GM-CFU numbers/1000 plated cells. […] Error bars represent means±SD * p<0.05, ** p<0.01, unpaired t-test.

Wnt pathway = assay: Q-PCR and microarray of Wnt pathway genes in AVP-stimulated CD34+ cells; assay type: cell-based, human
Description: as §1
The resultant cDNA was amplified with QuantiTect SYBR Green RT-PCR kit (Qiagen) or with SYBR Green Supermix (Bio-Rad, Hercules, Calif.). For qPCR, cDNA (2 μls of cDNA for AVP expression and […] for OXT or beta-actin expression) was amplified with QuantiTect SYBR Green RT-PCR kit and the expression data were normalized to human beta-actin expression.

mice = assay: Single intraperitoneal AVP injection, bone marrow populations 16 hours later; assay type: in vivo, mouse; conditions: i.p. 100 μg/kg, bone marrow 16 hours later
Description: Short-term effect of a single intraperitoneal AVP injection: [Arg8]-Vasopressin (Ana-spec) (100 μg/kg body weight) together with 20 mg/kg body weight o-phenantroline (Sigma-Aldrich) or vehicle PBS with 20 mg/kg body weight o-phenantroline. 16 hours later bone marrow (two hind limbs) and spleen cells were obtained to study the distribu-tion of HSCs and multipotent progenitors (MPP) as well as intermediate lineage-com-mitted progenitors and the erythroid populations as described before (n=5/group) (Wilson et al. Cell 135, 1118-1129, doi:10.1016/j.cell.2008.10.048 (2008); Pronk, C. J. et al. Cell Stem Cell 1, 428-442, doi:10.1016/j.stem.2007.07.005 (2007); Weissman, I. L. Cell 100, 157-168 (2000). Serial AVP injections: Mice (n=8-9) were injected ip. 2 times/day with AVP 100 μg/kg body weight or PBS for 6.5 days. After day 6.5, mice were euthanized and the erythroid populations (CD71^+, Ter119^+) in spleen and bone marrow were analyzed (Cheshier, S. H. et al., Stem Cells Dev 16, 707-717, doi:10.1089/scd.2007.0017 (2007).

Human BMSCs = assay: BMSC signalling (ERK phosphorylation, cAMP, intracellular Ca2+); assay type: cell-based; conditions: BMSC cultures
Description: Human BMSCs were loaded with Fura-2 and the cells were stimulated with AVP, or OXT.
For cAMP quantitation, 8×10^5 per well human BMSCs were plated in 6 well plates and left to attach overnight. Next day, the medium was changed and the cells were stimulated with AVP or deamino-Cys^1, D-Arg^8 AVP (DDAVP, a V2 receptor agonist) at 10^−6 M for 4 minutes. Cells were washed with PBS and lysed with R&D cell lysis buffer. Cyclic AMP was measured with the R&D cAMP Parameter assay kit (R&D Systems, Minneapolis, Minn.) according to manufacturer's instructions. Total protein concentrations of the cell lysates were measured using the Micro BCA Protein Assay kit (Pierce, Rockford, Ill.) and cAMP amount was normalized to 100 μg of total protein.

[1] = AVP stimulated CD34+ cells vs control cells

NC(=O)CC[C@@H]1NC(=O)[C@H](Cc2ccccc2)NC(=O)[C@H](Cc2ccc(O)cc2)NC(=O)[C@@H](N)CSSC[C@@H](C(=O)N2CCC[C@H]2C(=O)N[C@@H](CCCN=C(N)N)C(=O)NCC(N)=O)NC(=O)[C@H](CC(N)=O)NC1=O [AVP, [Arg8]-Vasopressin]
nuclear translocation of β-catenin (β-catenin): drives nuclear translocation of β-catenin; also recorded: had this effect | LEF1 RNA (Wnt pathway; [1]): an increase (statistically not significant) | MYC RNA (Wnt pathway; [1]): significantly more | cyclin D1 (CCND1) RNA (Wnt pathway; [1]): significantly more | difference in Wnt pathway genes (CDON, DKK1, DPP10, FZD7 up; CDKN2A, FST, KLF5 down) (Wnt pathway; single microarray study): over two-fold difference | number of HSCs and early multipotent progenitors (MPPs) (mice): No difference was detected | number of red blood cell producing progenitors and blast cells (CMP, MEP, proerythroblast, erythroblasts) (mice): statistically significant increase | ERK phosphorylation (Human BMSCs): induced ERK phosphorylation | cyclic AMP (Human BMSCs; 10^−6 M for 4 minutes): increase in cyclic AMP
